In article PMC4242290 (Nuclear Receptor Signaling, 2014):
Entries after “also recorded” stand apart in the source; their conditions may differ. Structures can show the parent of a compound that is named as a salt. *1 amine or outer side, *2 acyl side, *3 side chain or, on linkers, in order; H or OH if unused. Where a SMILES comes first, the peptide text is derived from it. Bridges are numbered along the chain shown (N, C = ends). Roman numbers before positions name the chains, in order. [ ]: non-standard residue; d: D form. Actinocin(9to1) = Cc1c2oc3c(C)ccc(C(=O)[*:1])c3nc-2c(C(=O)[*:2])c(N)c1=O; NMeV = CN[C@H](C(=O)O)C(C)C; Sar = CNCC(=O)O

Legend:
ERβ [1] = target: T1, ERβ (Homo sapiens, UniProt Q92731); conditions: cited from earlier work
T1 sequence (Q92731 whole entry): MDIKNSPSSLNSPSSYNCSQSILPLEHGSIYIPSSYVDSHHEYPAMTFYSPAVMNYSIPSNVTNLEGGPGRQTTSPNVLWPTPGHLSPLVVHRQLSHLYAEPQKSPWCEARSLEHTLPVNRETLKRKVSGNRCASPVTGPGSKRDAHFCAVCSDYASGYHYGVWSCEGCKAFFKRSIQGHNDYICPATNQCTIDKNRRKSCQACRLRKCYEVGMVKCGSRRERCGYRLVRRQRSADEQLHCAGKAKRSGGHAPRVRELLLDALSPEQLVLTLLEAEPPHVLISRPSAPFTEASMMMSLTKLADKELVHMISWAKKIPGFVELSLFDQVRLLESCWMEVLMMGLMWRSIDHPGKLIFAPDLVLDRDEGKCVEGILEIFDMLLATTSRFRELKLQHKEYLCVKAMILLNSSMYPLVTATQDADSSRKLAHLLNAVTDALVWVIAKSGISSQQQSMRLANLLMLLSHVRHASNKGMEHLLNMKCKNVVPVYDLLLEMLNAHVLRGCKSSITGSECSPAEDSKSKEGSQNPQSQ

LNCaP cells = experiment: LNCaP cell proliferation; assay type: cell-based; conditions: 1 μM final concentration, 24 h treatment
His6-hERβ LBD = His6-hERβ LBD (Homo sapiens, UniProt Q92731); assay type: binding; conditions: for DSF primary screen: change in melting temperature of ERβ LBD: 500 µM
His6-hERβ LBD, sequence (Q92731 261-530): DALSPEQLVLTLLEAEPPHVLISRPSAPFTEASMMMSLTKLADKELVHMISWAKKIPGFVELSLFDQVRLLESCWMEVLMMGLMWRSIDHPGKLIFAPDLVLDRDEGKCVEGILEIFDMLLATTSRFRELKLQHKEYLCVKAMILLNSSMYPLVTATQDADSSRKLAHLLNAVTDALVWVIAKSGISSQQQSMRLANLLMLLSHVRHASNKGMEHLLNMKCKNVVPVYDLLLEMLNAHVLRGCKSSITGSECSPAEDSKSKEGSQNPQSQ

ERα [2] = target: T2, ERα (Homo sapiens, UniProt P03372); assay type: binding
T2 sequence (P03372 1-595): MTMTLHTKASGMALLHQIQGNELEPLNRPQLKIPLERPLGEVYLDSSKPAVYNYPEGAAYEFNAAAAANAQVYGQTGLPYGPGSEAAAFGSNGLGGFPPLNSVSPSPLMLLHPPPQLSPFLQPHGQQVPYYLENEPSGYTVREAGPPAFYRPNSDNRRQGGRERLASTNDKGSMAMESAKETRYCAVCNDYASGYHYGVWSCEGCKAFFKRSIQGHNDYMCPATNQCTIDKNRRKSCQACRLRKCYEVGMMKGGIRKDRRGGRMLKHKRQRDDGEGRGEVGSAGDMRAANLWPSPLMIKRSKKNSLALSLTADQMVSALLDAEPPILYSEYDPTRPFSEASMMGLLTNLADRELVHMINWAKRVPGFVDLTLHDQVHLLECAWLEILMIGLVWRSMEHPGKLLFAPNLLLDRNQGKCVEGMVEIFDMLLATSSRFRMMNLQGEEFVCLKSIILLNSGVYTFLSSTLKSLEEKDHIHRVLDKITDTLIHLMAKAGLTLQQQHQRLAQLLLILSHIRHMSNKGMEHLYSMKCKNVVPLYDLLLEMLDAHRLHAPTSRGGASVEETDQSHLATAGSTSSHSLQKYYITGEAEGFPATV

ERβ [3] = target: T1, ERβ; conditions: radioligand binding assay; cited from earlier work
ERβ [4] = target: T1, ERβ; assay type: binding; conditions: for β-selectivity (fold): IC50 for ERα divided by IC50 for ERβ, from FP
full length ERβ = full length ERβ (Homo sapiens, UniProt Q92731); experiment: ERE-luciferase transactivation in HeLa cells, full length ERβ; assay type: cell-based
full length ERβ, sequence (Q92731 whole entry): as the sequence (Q92731 whole entry) above

[5] = Phase II double-blind clinical trial; cited from earlier work
GAL4 DBD-ERβ LBD = GAL4 DBD-ERβ LBD (Homo sapiens, UniProt Q92731); experiment: GAL4 transactivation assay in HEK293T cells; assay type: cell-based
GAL4 DBD-ERβ LBD, sequence (Q92731 264-498 limits assumed): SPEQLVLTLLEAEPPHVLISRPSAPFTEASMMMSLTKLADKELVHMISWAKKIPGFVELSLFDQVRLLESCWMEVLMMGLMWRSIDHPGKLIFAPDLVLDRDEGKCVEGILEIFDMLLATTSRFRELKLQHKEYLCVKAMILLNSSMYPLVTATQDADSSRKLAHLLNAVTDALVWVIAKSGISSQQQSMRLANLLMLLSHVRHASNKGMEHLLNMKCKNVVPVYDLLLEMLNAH

ERβ [6] = target: T1, ERβ; conditions: transiently transfected MCF-7 cells; cited from earlier work
ERα [7] = target: T2, ERα; conditions: transiently transfected MCF-7 cells; cited from earlier work

c1ccc2c(Cc3c[nH]c4ccccc34)c[nH]c2c1 [3,3’-diindolylmethane]
Selectivity of binding to ERβ (ERβ [1]): did not bind selectively to ERβ

C[C@]12CC[C@H]3[C@@H](CC=C4C[C@@H](O)CC[C@@]43C)[C@@H]1CC[C@@H]2O [5-androstenediol]
ER subtype selectivity (ERβ [1]): ERβ selective

C[C@@H](CO)CCC[C@@H](C)[C@H]1CC[C@H]2[C@@H]3CC=C4C[C@@H](O)CC[C@]4(C)[C@H]3CC[C@]12C [27-hydroxycholesterol, reference compound]
LNCaP cell proliferation (cell viability) (LNCaP cells): Suppression of proliferation

C[C@]12CC[C@H](O)CC1=CC[C@@H]1[C@@H]2CC[C@]2(C)C(=O)CC[C@@H]12 [DHEA, dehydroepiandrosterone]
LNCaP cell proliferation (cell viability) (LNCaP cells): Suppression of proliferation | Tm of His6-hERβ LBD purification product (His6-hERβ LBD): ~ 55 ºC | DSF primary screen: change in melting temperature of ERβ LBD (His6-hERβ LBD): putative binders | Binding to ERα in FP (competition with fluorescein labeled E2), result in words (ERα [2]): binders | Ki for ERβ compared with ERα (ERβ [3]): lower for ERβ than ERα | Binding to ERβ in FP (competition with fluorescein labeled E2), result in words (ERβ [4]): binders | β-selectivity (fold) (ERβ [4]): greater than 2 fold | Relative transactivation activity, full length ERβ (full length ERβ; 1 μM final concentration): greater capacity for ERβ activation than the selective partial agonist 27-hydroxycholesterol | ER subtype selectivity of transactivation (ERβ versus ERα) (full length ERβ; full length ERs, 1 μM): strong ERβ selectivity

C=Cc1cc(O)cc2nc(-c3ccc(O)c(F)c3)oc12 [ERB-041]
Efficacy in rheumatoid arthritis [5]: failed to demonstrate efficacy

CCCCCC[C@H]1C(=O)O[C@H](C)[C@H](NC(=O)c2cccc(NC=O)c2O)C(=O)O[C@@H](C)[C@@H]1OC(=O)CC(C)C [antimycin A]
DSF primary screen: change in melting temperature of ERβ LBD (His6-hERβ LBD): elicited changes in the protein melting temperature

CCN(CC)CCOc1ccc(C(=C(Cl)c2ccccc2)c2ccccc2)cc1 [clomiphene citrate]
IC50 (GAL4 DBD-ERβ LBD): 221 nM | DSF primary screen: change in melting temperature of ERβ LBD (His6-hERβ LBD): putative binders | Binding to ERβ in FP (competition with fluorescein labeled E2), result in words (ERβ [4]): binders

Cc1c2oc3c(C)ccc(C(=O)N[C@@H]4C(=O)N[C@H](C(C)C)C(=O)N5CCC[C@H]5C(=O)N(C)CC(=O)N(C)[C@@H](C(C)C)C(=O)O[C@@H]4C)c3nc-2c(C(=O)N[C@@H]2C(=O)N[C@H](C(C)C)C(=O)N3CCC[C@H]3C(=O)N(C)CC(=O)N(C)[C@@H](C(C)C)C(=O)O[C@@H]2C)c(N)c1=O [dactinomycin] (I: T[dV]P[Sar][NMeV] / II: T[dV]P[Sar][NMeV]; ester I:1-I:C, II:1-II:C; linker I:N-II:N via Actinocin(9to1))
DSF primary screen: change in melting temperature of ERβ LBD (His6-hERβ LBD): elicited changes in the protein melting temperature

CC/C(=C(/CC)c1ccc(O)cc1)c1ccc(O)cc1 [diethylstilbestrol, reference compound]
Binding to ERβ in FP (competition with fluorescein labeled E2), result in words (ERβ [4]): binders

C[C@]12CC[C@H]3C(=CCc4cc(O)ccc43)[C@@H]1CCC2=O [equilin]
DSF primary screen: change in melting temperature of ERβ LBD (His6-hERβ LBD): putative binders

C[C@]12CC[C@@H]3c4ccc(O)cc4CC[C@H]3[C@@H]1C[C@@H](O)[C@@H]2O [estriol]
Binding to ERβ in FP (competition with fluorescein labeled E2), result in words (ERβ [4]): binders; also recorded: greater relative affinity than estrone

C#C[C@]1(O)CC[C@H]2[C@@H]3CCc4cc(O)ccc4[C@H]3CC[C@@]21C [ethinyl estradiol]
DSF primary screen: change in melting temperature of ERβ LBD (His6-hERβ LBD): putative binders

CC[C@]1(O)CC[C@H]2[C@@H]3CCC4=CCCC[C@@H]4[C@H]3CC[C@@]21C [ethylestrenol]
DSF primary screen: change in melting temperature of ERβ LBD (His6-hERβ LBD): putative binders

CCOC(=O)C1=C(C)NC(C)=C(C(=O)OC)C1c1cccc(Cl)c1Cl (centres unmarked) [felodipine]
DSF primary screen: change in melting temperature of ERβ LBD (His6-hERβ LBD): showed up as hits in the primary assay

CC[C@H](c1ccc(O)cc1)[C@@H](CC)c1ccc(O)cc1 [hexestrol, reference compound]
DSF primary screen: change in melting temperature of ERβ LBD (His6-hERβ LBD): putative binders | Binding to ERα in FP (competition with fluorescein labeled E2), result in words (ERα [2]): binders | Ki for ERβ compared with ERα (ERβ [3]): the same for both isoforms | Binding to ERβ in FP (competition with fluorescein labeled E2), result in words (ERβ [4]): binders

O=c1cc(-c2ccc(O)c(O)c2)oc2cc(O)cc(O)c12 [luteolin]
Activation of ERβ (ERβ [6]): very slight effect on ERβ | Activation of ERα (ERα [7]): no effect on ERα | β-selectivity (fold) (ERβ [4]): greater than 2 fold

O=C1C[C@@H](c2ccc(O)cc2)Oc2cc(O)cc(O)c21 [naringenin]
DSF primary screen: change in melting temperature of ERβ LBD (His6-hERβ LBD): putative binders | β-selectivity (fold) (ERβ [4]): greater than 2 fold

C[C@@H]1[C@H](O)[C@@H](C)/C=C/C=C/CC/C=C/C=C/C=C/C=C/C(O[C@H]2O[C@H](C)[C@@H](O)[C@H](N)[C@@H]2O)CC2O[C@](O)(CC(O)C(O)CCC(O)CC(O)CC(O)CC(=O)O[C@H]1C)CC(O)C2C(=O)O (some centres unmarked) [nystatin]
DSF primary screen: change in melting temperature of ERβ LBD (His6-hERβ LBD): elicited changes in the protein melting temperature

COc1cc(/C=C/c2ccc(O)cc2)cc(OC)c1 [pterostilbene]
DSF primary screen: change in melting temperature of ERβ LBD (His6-hERβ LBD): putative binders

C[C@H]1CCC[C@H](O)CCCCCc2cc(O)cc(O)c2C(=O)O1 [zeranol]
Binding to ERα in FP (competition with fluorescein labeled E2), result in words (ERα [2]): binders

goserelin acetate
DSF primary screen: change in melting temperature of ERβ LBD (His6-hERβ LBD): elicited changes in the protein melting temperature

medicarpin
β-selectivity (fold) (ERβ [4]): greater than 2 fold
